Measurements: ChEMBL document CHEMBL3431459, “Roche carnitine palmitoyltransferase modulator screening data (supplementary data associated with the publication CHEMBL2216752)”
≈ marks a conversion by molar mass, not a printed value.

Key:
[1] = target: T1, Carnitine O-palmitoyltransferase 2, mitochondrial (Rattus norvegicus, UniProt P18886); test: (§1) SUPPLEMENTARY: Inhibition of Carnitine palmitoyltransferase 2
T1 sequence (P18886 whole entry): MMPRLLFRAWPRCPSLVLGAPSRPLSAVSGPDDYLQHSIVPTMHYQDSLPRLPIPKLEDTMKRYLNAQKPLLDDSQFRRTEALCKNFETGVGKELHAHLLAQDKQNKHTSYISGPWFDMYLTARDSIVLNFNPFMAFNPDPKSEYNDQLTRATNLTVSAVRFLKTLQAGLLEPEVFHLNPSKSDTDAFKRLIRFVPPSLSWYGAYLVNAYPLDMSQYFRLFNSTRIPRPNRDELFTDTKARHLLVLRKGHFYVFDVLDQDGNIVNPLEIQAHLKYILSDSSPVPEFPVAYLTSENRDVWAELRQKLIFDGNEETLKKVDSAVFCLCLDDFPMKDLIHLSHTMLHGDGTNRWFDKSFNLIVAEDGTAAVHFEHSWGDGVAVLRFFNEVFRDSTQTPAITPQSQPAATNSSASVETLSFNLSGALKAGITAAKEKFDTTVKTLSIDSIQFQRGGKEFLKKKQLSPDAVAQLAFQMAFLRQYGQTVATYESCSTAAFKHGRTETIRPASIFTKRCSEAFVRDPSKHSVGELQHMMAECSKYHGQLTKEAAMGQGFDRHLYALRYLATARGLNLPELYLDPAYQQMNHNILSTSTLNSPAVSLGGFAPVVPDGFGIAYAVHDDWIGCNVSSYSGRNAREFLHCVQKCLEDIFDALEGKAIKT

[2] = target: T2, Carnitine O-palmitoyltransferase 1, muscle isoform (Homo sapiens, UniProt Q92523); test: SUPPLEMENTARY: Inhibition of Carnitine palmitoyltransferase 1, muscle isoform; parameters: species or system Muscle tissue
T2 sequence (Q92523 whole entry): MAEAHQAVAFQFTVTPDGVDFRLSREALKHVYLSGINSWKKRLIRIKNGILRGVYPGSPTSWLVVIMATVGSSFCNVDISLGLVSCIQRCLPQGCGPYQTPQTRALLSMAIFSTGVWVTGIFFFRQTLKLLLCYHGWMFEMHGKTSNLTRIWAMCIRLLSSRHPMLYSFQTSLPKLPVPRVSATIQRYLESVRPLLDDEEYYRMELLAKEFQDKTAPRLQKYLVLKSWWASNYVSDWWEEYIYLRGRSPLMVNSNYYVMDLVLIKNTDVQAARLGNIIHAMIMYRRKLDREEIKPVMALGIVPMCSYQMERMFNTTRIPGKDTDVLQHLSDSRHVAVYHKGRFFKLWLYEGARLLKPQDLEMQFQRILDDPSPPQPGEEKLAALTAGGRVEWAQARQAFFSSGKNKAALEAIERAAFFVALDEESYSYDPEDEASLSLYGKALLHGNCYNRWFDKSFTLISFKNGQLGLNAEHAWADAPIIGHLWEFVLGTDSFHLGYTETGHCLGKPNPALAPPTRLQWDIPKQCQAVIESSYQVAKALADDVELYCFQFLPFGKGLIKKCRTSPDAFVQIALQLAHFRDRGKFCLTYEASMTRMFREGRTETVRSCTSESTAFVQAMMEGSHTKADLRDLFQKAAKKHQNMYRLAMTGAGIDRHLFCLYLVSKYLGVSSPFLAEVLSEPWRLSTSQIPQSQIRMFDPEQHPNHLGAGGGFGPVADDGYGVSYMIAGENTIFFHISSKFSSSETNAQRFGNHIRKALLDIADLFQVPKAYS

[3] = SUPPLEMENTARY: PAMPA permeability assay; assay type: physicochemical; conditions: read-out: Permeability
[4] = SUPPLEMENTARY: Lyophilisation Solubility Assay (LYSA); assay type: physicochemical; conditions: read-out: Kinetic_solubility
[5] = target: T3, Carnitine O-palmitoyltransferase 1, liver isoform (Rattus norvegicus, UniProt P32198); test: (§2) SUPPLEMENTARY: Inhibition of Carnitine palmitoyltransferase 1, liver isoform
T3 sequence (P32198 whole entry): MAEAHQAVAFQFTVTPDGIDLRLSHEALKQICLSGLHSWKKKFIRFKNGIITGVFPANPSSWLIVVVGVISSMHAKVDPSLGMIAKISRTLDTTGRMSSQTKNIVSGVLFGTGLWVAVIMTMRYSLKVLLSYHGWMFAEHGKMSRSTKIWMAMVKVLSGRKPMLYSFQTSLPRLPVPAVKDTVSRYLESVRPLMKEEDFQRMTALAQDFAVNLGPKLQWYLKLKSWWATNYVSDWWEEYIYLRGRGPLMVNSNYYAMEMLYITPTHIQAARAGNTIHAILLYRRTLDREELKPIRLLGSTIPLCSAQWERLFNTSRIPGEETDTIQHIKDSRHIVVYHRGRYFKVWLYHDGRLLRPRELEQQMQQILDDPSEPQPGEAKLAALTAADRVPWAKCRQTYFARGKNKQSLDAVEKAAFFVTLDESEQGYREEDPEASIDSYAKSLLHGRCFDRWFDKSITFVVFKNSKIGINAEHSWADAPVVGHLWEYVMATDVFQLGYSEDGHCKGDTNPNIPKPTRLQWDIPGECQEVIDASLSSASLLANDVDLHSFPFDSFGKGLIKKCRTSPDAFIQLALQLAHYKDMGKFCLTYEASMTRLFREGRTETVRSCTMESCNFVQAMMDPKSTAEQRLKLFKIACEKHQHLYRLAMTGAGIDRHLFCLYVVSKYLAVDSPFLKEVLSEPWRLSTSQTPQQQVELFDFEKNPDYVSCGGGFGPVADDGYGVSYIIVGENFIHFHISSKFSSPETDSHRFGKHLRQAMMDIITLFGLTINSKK

[6] = target: T4, Carnitine O-palmitoyltransferase 2, mitochondrial (Homo sapiens, UniProt P23786); test: as §1
T4 sequence (P23786 whole entry): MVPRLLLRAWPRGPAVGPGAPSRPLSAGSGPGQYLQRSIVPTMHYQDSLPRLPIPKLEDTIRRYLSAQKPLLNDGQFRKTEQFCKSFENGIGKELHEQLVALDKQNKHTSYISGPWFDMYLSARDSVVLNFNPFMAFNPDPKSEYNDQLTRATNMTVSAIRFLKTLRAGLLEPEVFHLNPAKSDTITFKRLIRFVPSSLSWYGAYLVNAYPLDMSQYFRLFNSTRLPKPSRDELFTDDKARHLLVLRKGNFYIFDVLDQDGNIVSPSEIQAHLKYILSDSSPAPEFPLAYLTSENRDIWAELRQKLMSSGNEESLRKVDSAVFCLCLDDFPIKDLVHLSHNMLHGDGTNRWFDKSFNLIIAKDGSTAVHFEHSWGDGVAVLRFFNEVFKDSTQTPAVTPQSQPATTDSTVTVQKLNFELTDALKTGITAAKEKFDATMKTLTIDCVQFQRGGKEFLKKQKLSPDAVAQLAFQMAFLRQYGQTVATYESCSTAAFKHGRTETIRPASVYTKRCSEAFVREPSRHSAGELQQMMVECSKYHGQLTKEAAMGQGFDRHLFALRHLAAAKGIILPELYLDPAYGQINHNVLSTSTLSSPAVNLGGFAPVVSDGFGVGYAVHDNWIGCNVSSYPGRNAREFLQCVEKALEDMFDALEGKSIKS

[7] = target: T5, Carnitine O-palmitoyltransferase 1, liver isoform (Homo sapiens, UniProt P50416); test: as §2
T5 sequence (P50416 whole entry): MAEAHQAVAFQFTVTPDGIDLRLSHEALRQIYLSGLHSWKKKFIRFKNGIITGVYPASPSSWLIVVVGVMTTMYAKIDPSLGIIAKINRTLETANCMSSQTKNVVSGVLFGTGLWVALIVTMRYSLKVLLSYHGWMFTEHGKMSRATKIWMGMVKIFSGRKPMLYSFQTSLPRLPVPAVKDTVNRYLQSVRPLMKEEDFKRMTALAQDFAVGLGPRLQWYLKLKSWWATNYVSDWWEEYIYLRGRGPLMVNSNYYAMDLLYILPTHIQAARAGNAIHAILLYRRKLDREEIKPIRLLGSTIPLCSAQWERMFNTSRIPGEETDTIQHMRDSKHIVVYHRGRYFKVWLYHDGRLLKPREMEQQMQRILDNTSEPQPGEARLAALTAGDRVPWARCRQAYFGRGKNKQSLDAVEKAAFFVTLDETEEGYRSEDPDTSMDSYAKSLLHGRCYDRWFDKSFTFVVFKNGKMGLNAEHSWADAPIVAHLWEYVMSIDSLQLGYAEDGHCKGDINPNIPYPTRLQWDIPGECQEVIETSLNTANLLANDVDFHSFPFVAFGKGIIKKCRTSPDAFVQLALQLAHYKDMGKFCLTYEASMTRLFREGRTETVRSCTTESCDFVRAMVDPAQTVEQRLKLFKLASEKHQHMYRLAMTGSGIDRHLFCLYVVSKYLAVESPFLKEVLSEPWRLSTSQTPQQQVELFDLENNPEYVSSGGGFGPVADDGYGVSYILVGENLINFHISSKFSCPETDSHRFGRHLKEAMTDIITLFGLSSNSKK

SMILES | IC50 [1] | IC50 [2] | Papp [3] | solubility kinetic [4] | IC50 [5] | IC50 [6] | IC50 [7]
COc1ccc(Cl)cc1S(=O)(=O)N1CCc2ccc(C(=O)Nc3ccc(C(=O)O)cc3)cc21 | 7820 nM | > 100000 nM | 2.78 ×10⁻⁶ cm/s | 5 µg/mL (≈ 10.3 µM) | 55 nM |  | 
COc1ccc(Cl)cc1S(=O)(=O)N1CCSc2ccc(C(=O)Nc3ccc(C(=O)O)cc3)cc21 | > 100000 nM | > 100000 nM |  | 4 µg/mL (≈ 7.71 µM) | 56.9 nM | > 100000 nM | 65.4 nM
O=C(COc1ccccc1)N1CCCC[C@@H]1c1noc(C2C[C@@H]3CC[C@H]2C3)n1 (some centres undefined) | > 100000 nM | > 100000 nM |  | < 1 µg/mL | 310 nM | 19900 nM | 32.6 nM
Nc1cc(-c2noc([C@H]3CCCCN3C(=O)COc3ccccc3)n2)ccn1 | 35200 nM | > 100000 nM | 5.3 ×10⁻⁶ cm/s | 106 µg/mL (≈ 279 µM) | 250 nM | 19500 nM | 108 nM
O=C(COc1ccccc1)N1CCCCC1c1ncc(-c2cccc([N+](=O)[O-])c2)o1 (centres undefined) |  | > 100000 nM | 0.66 ×10⁻⁶ cm/s | 4 µg/mL (≈ 9.82 µM) | 237 nM | 12800 nM | 243 nM
O=C(COc1ccccc1)N1CCCC[C@@H]1c1nc(-c2cccc([N+](=O)[O-])n2)no1 |  | > 100000 nM | 5.48 ×10⁻⁶ cm/s | 10 µg/mL (≈ 24.4 µM) | 760 nM | 17200 nM | 254 nM
O=C([O-])c1cccc(-c2csc([C@H]3CCCCN3C(=O)COc3ccccc3)n2)c1.[Na+] | 49600 nM |  | 3.55 ×10⁻⁶ cm/s | > 525 µg/mL | 96.4 nM | 28700 nM | 19.7 nM
Cc1cc(C)cc(S(=O)(=O)c2n[nH]c3ccc(C(=O)Nc4ccccc4)cc23)c1 | > 100000 nM | > 100000 nM |  | < 1 µg/mL |  | > 100000 nM | 221 nM
COc1ccc(Cl)cc1S(=O)(=O)N1CCOc2c(C(F)F)cc(C(=O)Nc3ccc(C(=O)O)cc3)cc21 | 16000 nM | > 100000 nM |  |  | 2910 nM | 1440 nM | 325 nM

Other lines, results leading:

IC50 [1] | IC50 [2] | Papp [3] | solubility kinetic [4] | IC50 [5] | IC50 [6] | IC50 [7] | SMILES
2850 nM | 5930 nM | 3.2 ×10⁻⁶ cm/s | 8 µg/mL (≈ 16 µM) | 32.3 nM | 2130 nM | 26.7 nM | COc1ccc(Cl)cc1S(=O)(=O)N1CCCc2ccc(C(=O)Nc3ccc(C(=O)O)cc3)cc21
36600 nM | 14800 nM | 2.7 ×10⁻⁶ cm/s | 8 µg/mL (≈ 15.9 µM) | 35.4 nM | 26700 nM | 40.1 nM | COc1ccc(Cl)cc1S(=O)(=O)N1CCOc2ccc(C(=O)Nc3ccc(C(=O)O)cc3)cc21
> 100000 nM | 19600 nM | 4.82 ×10⁻⁶ cm/s | 7 µg/mL (≈ 13.4 µM) | 53.4 nM | > 100000 nM | 111 nM | O=C(Nc1ccc(C(=O)O)c(F)c1)c1ccc2c(c1)N(S(=O)(=O)c1cc(Cl)cc(Cl)c1)CCC2
6450 nM | 9000 nM | 2.13 ×10⁻⁶ cm/s | 10 µg/mL (≈ 19.1 µM) | 74.8 nM | 2230 nM | 126 nM | O=C(Nc1ccc(C(=O)O)c(F)c1)c1ccc2c(c1)N(S(=O)(=O)c1cccc(C(F)(F)F)c1)CCC2
> 100000 nM | 11800 nM | 0.81 ×10⁻⁶ cm/s | 1 µg/mL (≈ 1.99 µM) | 189 nM | > 100000 nM | 71.3 nM | COc1ccc(Cl)cc1S(=O)(=O)N1CCNc2ccc(C(=O)Nc3ccc(C(=O)O)cc3)cc21
81600 nM | 6170 nM | 1.23 ×10⁻⁶ cm/s | 31 µg/mL (≈ 72.9 µM) | 932 nM | 72600 nM | 192 nM | Cc1cc(C(=O)Nc2ccc(-c3nnn[nH]3)cc2)nn1Cc1ccc(OC(F)F)cc1
> 100000 nM | 5320 nM |  |  | 792 nM | > 100000 nM | 337 nM | COCCN(c1cc(C(=O)Nc2ccn(CC(=O)O)n2)cc2c1OCO2)S(=O)(=O)c1cc(Cl)ccc1OC
> 100000 nM | 2810 nM |  |  | 1720 nM | > 100000 nM | 175 nM | COc1ccc(Cl)cc1S(=O)(=O)N(CCC(=O)O)c1cc(C(=O)Nc2ccccc2)cc2c1OCO2
